Values after ≈ are worked out from the molar mass of the structure shown.
How the values were obtained:
(Mouth) KB cells = assay: MTT assay KB; type: cell-based; conditions: Homo sapiens
[1] = tested on: Fibronectin secretion from bladder carcinoma cells (HTB-9); assay: Fibronectin secretion (Western blot), HTB-9 cells; type: cell-based, human; conditions: 10 ug/ml
[2] = tested on: Fibronectin secretion from Hey8A (human ovarian carcinoma cells); assay: Fibronectin secretion (Western blot), Hey8A cells; type: cell-based; conditions: 10 ug/ml, 24 hours
Experimental: Inhibition of Fibronectin secretion is physiological and the determination of its quantity is based on the following criteria: • 1. Fibronectin is secreted from viable cells. Only cell with over 85% viable cells after drug-treatment are employed in these experiments. The viable cells were determined by MTT assay. • 2. For comparison, the immuno-band intensity from each samples are normalized with cell mass. The cell mass was determined by the MTT assay and is assigned as a MTT unit for each cell sample.
Cells: Hey8A (human ovarian carcinoma cells) were grew in RPMI 1640 medium to 90% confluent before drug-treatment. Drug-treatment: Cells cultures were replaced with fresh RPMI medium containing either DMSO (as control) [D1]; or Xanifolia-Y (10, 15, or 20 ug/ml) [Y1, Y2 and Y3]. Aliquot of medium was removed as 0 hours sample and no FN was detected at this time. After 24 hours, aliquot of culture medium was taken out for Fibronectin determination (Western blot method). Cell viability at 24 hours was determined by MTT assay. Cultures were replaced with RPMI medium (5 ml) with MTT and incubated for an hour. The formation of formazan was dissolved in DMSO and OD at 570 nm was measured.
Western Blot: Spent culture medium (0.6 ml) was mixed with SDS sample buffer (0.2 ml), boiled for 3 minutes before loading to SDS gel. Samples (60 ul/lane) were applied to a 6% SDS gel and electrophoresis was conducted with 100 volts for 2 hours. Protein was transferred to a nitrocellulose paper electrophoretically (30 min at 100 volts). The Western blot was incubated with the first antibody (mouse anti-FN, specific to human FN, SIGMA F0916) and second antibody (Anti-mouse IgG AP conjugated, Promega S3721). The immunobands were developed with BCIP/NBT color development system (Promega S3771).

[3] = tested on: Hey8A cells attached to flasks; assay: Inhibition of cell adhesion to flasks, Hey8A; type: cell-based, human; conditions: 5 ug/ml, 5 hours
Experimental: (§1) Methods and Results. ES2 or Hey8A cells were plated in T25 flasks with medium containing 5 ug/ml of Xanifolia-Y. Cultures were incubated for 5 hours. Attached cells were removed from flasks by trypsinization and the amounts were counted. Compare to no drug controls, 86±4% of ES2 cells and 67±8% of Hey8A cells were found attached to flasks under this condition. At 5 ug/ml Xanifolia-Y, over 90% of unattached cells are alive as determined by the trypan Blue exclusion assay and by their ability to re-attach to flasks when plating in medium without Xanifolia-Y. However, with 10 ug/ml Xanifolia-Y, less than 40% of cells attached to flasks and many of them are dead cells.
as §1, with “Results:” for “Results.”

[4] = tested on: ES2 cells attached to flasks; assay: Inhibition of cell adhesion to flasks, ES2; type: cell-based
Experimental: as §1
as §1, with “Results:” for “Results.”

K562 cells membrane = assay: EM study of membrane structure; type: cell-based, human; conditions: 5 uM, 60 min
Excerpt: Xanifolia-Y has a potent hemolytic activity in red blood cells (FIG. 27). To study the effect of Xanifolia-Y on membrane structure, the morphology of cell membrane treated with Xanifolia-Y was examined with EM. […] Solvent DMSO and AKOH-Y (a derivative of Xanifolia-Y without the angeloyl group and it has no activity) served as controls. Cells were negative stained with 1% UAc and subsequently examined with EM.

[5] = tested on: (bladder)TB9 cells / HTB-9; assay: MTT assay bladder cells; type: cell-based, human
Experimental: (§2) Cells. Human cancer cell lines were obtained from American Type Culture Collection: HTB-9 (bladder), HeLa-S3 (cervix), DU145 (prostate), H460 (lung), MCF-7 (breast), K562 (leukocytes), HCT116 (colon), HepG2 (liver), U2OS (bone), T98G (brain), SK-MEL-5 (Skin) and OVCAR-3 (ovary). The cells were grown in following culture media: HeLa-53, DU145, MCF-7, Hep-G2 and T98G are in MEN (Earle's salts); HTB-9, H460, K562 and OVCAR-3 in RPMI-1640; HCT-116 and U2OS in McCoy-5A. They are supplemented with 10% fetal calf serum, glutamine and antibiotics, and incubated in an incubator with 5% CO2 humidified at 37° C.
MTT Assay. The procedure for MTT assay followed the method described by Carmichael et al. (1987) with modifications. The cells were seeded into a 96-well plate at concentration of 10,000/well for HTB-9, HeLa, H460, HCT116, T98G and OVCAR-3), 15,000/well for DU145, MCF-7, HepG2 and U2OS), and 40,000/well for K562 for 24 hours before drug-treatment. The cells were then exposed to the drugs for 48 hours (72 hours for HepG2 and U2OS, and 96 hours for MCF-7). After the drug-treatment, MTT (0.5 mg/mL) was added to cultures and incubated for an hour. The formazan (product of the reduction of tetrazolium by viable cells) formed and was dissolved with DMSO and the O.D. at 490 nm, and was measured by an ELISA reader. The MTT level of the cells before drug-treatment was also measured (T0). The % cell-growth (% G) is calculated as: % G=(TD−T0/TC−T0)×100(1), where TC or TD represents O.D. readings of control or drug-treated cells. When T0>TD, then the cytotoxicity (LC) expressed as % of the control is calculated as: % LC=(TD−T0/T0)×100(2).

[6] = tested on: OVCAR3 cells (from ovary); assay: MTT assay OVCAR3; type: cell-based; conditions: Homo sapiens, OVCAR-3; OVCAR3, Serous
Experimental: as §2
MTT Assay. […] The formazan (product of the reduction of tetrazolium by viable cells) formed and was dissolved with DMSO and the O.D. at 490 nm, and was measured by an ELISA reader. The MTT level of the cells before drug-treatment was also measured (T0). The % cell-growth (% G) is calculated as: % G=(TD−T0/TC−T0)×100(1), where TC or TD represents O.D. readings of control or drug-treated cells. When T0>TD, then the cytotoxicity (LC) expressed as % of the control is calculated as: % LC=(TD−T0/T0)×100(2).
Majority of ovarian cancers arise from the surface epithelium of ovary, most of them belong to the histological subtypes of clear cell and serous carcinoma. […] The inhibition activity exerted by Xanifolia-Y was determined with MTT assay.

Q: What does the source list for `C/C=C(/C)C(=O)O[C@H]1[C@H](OC(=O)/C(C)=C\C)[C@@]2(CO)C(CC1(C)C)C1=CCC3[C@@]4(C)CC[C@H](O[C@@H]5OC(C(=O)O)[C@@H](O)C(O[C@@H]6O[C@@H](CO)C(O)C6O)C5O[C@@H]5OC(CO)[C@H](O)C(O)C5O)C(C)(C)C4CC[C@@]3(C)[C@]1(C)[C@@H](O)[C@H]2O` (stereo partly drawn) [Xanifolia-Y, 3-O-[β-D-galactopyranosyl (1→2)]-α-L-arabinofuranosy (1→3)-β-D-glucuronopyranosyl-21,22-O-diangeloyl-3β, 15α, 16α, 21β, 22α, 28-hexahydroxyolean-12-ene]?
A: IC50 ((Mouth) KB cells): 6 µg/mL (≈ 5.26 µM); % inhibition of Fibronectin secretion [1]: about 50%; % inhibition of Fibronectin secretion ([1]; listed as Y3): 51%; inhibition at 10 µg/mL ([1]; Homo sapiens): 50%; Fibronectin secreted as compared with the DMSO control [2]: 31%; average band intensity after corrected with the MTT unit [2]: 366; inhibition at 10 µg/mL ([2]; Homo sapiens, Ovarian carcinoma cell): 69%; cells attached to flasks, compared to no drug controls [3]: 67±8%; cells attached to flasks, compared to no drug controls ([4]; ES2 cells, 5 ug/ml, 5 hours): 86±4%; unattached cells alive (trypan Blue exclusion, re-attachment) ([4]; ES2 or Hey8A cells, 5 ug/ml): over 90%; cells attached to flasks ([4]; ES2 or Hey8A cells, 10 ug/ml): less than 40%; membrane morphology (EM) (K562 cells membrane): patches of pits were found in the membrane; growth of cells compared to the DMSO control (MTT) ([5]; HTB-9, 10 ug/ml): 77%-91%; IC50 ([5]; Homo sapiens, (bladder)TB9 cells, read-out: IC50): 5 µg/mL (≈ 4.38 µM); IC50 [6]: 2.2 µM

From US10213451B2, “Methods and compounds for modulating the secretion or expression of adhesion proteins or angiopoietins of cells” (PACIFIC ARROW LIMITED, priority 2004, dated 2019)
